Data reported in paper PMC5218480 (PLoS ONE, 2017).

Test system: MV-4-11 cells
Assay: Gene expression microarray analysis (Affymetrix PrimeView) and GSEA
Type: cell-based, human
Set-up: RFU PODN (11730768_x_at) / Fold change /veh PODN (11730768_x_at) / RFU LINC00158 (11744669_a_at) / Fold change /veh LINC00158 (11744669_a_at) / RFU DUSP10 (11751237_a_at) / Fold change /veh DUSP10 (11751237_a_at) / RFU ID3 (11757404_x_at) / Fold change /veh ID3 (11757404_x_at) / RFU PLEKHG5 (11737974_s_at) / Fold change /veh PLEKHG5 (11737974_s_at) / RFU LRRC4B (11730491_at) / Fold change /veh LRRC4B (11730491_at) / RFU GIMAP4 (11747438_a_at) / Fold change /veh GIMAP4 (11747438_a_at) / RFU KRT8 (11758183_x_at) / Fold change /veh KRT8 (11758183_x_at) / RFU CNN1 (11734310_a_at) / Fold change /veh CNN1 (11734310_a_at) / RFU VPS37D (11726825_at) / Fold change /veh VPS37D (11726825_at) / RFU C10orf10 (11716522_x_at) / Fold change /veh C10orf10 (11716522_x_at) / RFU KIR2DL2 /// KIR2DL4 /// KIR2DL5A /// KIR2DL5B /// KIR2DS1 /// KIR2DS2 /// KIR2DS3 /// KIR2DS4 /// KIR3DL3 /// KIR3DL3 /// KIR3DS1 (11738374_at) / Fold change /veh KIR2DL2 /// KIR2DL4 /// KIR2DL5A /// KIR2DL5B /// KIR2DS1 /// KIR2DS2 /// KIR2DS3 /// KIR2DS4 /// KIR3DL3 /// KIR3DL3 /// KIR3DS1 (11738374_at) / RFU C1QL1 (11718748_at) / Fold change /veh C1QL1 (11718748_at) / RFU TMPRSS4 (11747572_a_at) / Fold change /veh TMPRSS4 (11747572_a_at) / RFU HAMP (11756126_x_at) / Fold change /veh HAMP (11756126_x_at) / RFU RNFT2 (11725882_a_at) / Fold change /veh RNFT2 (11725882_a_at) / RFU NR4A2 (11747474_a_at) / Fold change /veh NR4A2 (11747474_a_at) / RFU ABCC12 (11746883_a_at) / Fold change /veh ABCC12 (11746883_a_at) / RFU TMEM136 (11760407_x_at) / Fold change /veh TMEM136 (11760407_x_at) / RFU CLDN22 /// WWC2 (11732394_at) / Fold change /veh CLDN22 /// WWC2 (11732394_at) / RFU HLA-DPB1 (11760878_x_at) / Fold change /veh HLA-DPB1 (11760878_x_at) / RFU SPINT1 (11716480_a_at) / Fold change /veh SPINT1 (11716480_a_at) / RFU GAP43 (11754022_s_at) / Fold change /veh GAP43 (11754022_s_at) / RFU A4GNT (11735810_at) / Fold change /veh A4GNT (11735810_at) / RFU PRB3 (11715151_x_at) / Fold change /veh PRB3 (11715151_x_at) / RFU TUBB4B (11761932_at) / Fold change /veh TUBB4B (11761932_at) / RFU CAPN14 (11732068_a_at) / Fold change /veh CAPN14 (11732068_a_at) / RFU TMCC2 (11721928_a_at) / Fold change /veh TMCC2 (11721928_a_at) / RFU IRGQ (11745062_a_at) / Fold change /veh IRGQ (11745062_a_at) / RFU FAM174B (11720279_a_at) / Fold change /veh FAM174B (11720279_a_at) / RFU TMPRSS4 (11748680_a_at) / Fold change /veh TMPRSS4 (11748680_a_at) / RFU FAM212B (11763350_a_at) / Fold change /veh FAM212B (11763350_a_at) / RFU PLEKHG5 (11743358_a_at) / Fold change /veh PLEKHG5 (11743358_a_at) / RFU ZSCAN30 (11745921_a_at) / Fold change /veh ZSCAN30 (11745921_a_at) / RFU CMKLR1 (11741424_a_at) / Fold change /veh CMKLR1 (11741424_a_at) / RFU LOC101060620 /// MAPK8IP1 (11723275_at) / Fold change /veh LOC101060620 /// MAPK8IP1 (11723275_at) / RFU SPTSSB (11747773_x_at) / Fold change /veh SPTSSB (11747773_x_at) / RFU PRSS12 (11739890_at) / Fold change /veh PRSS12 (11739890_at) / RFU BIN1 (11741810_x_at) / Fold change /veh BIN1 (11741810_x_at) / RFU WNT11 (11732464_a_at) / Fold change /veh WNT11 (11732464_a_at) / RFU C10orf10 (11716521_a_at) / Fold change /veh C10orf10 (11716521_a_at) / RFU C5orf56 (11738089_at) / Fold change /veh C5orf56 (11738089_at) / RFU CYB561 (11721691_x_at) / Fold change /veh CYB561 (11721691_x_at) / RFU ANKRD19P (11752326_a_at) / Fold change /veh ANKRD19P (11752326_a_at) / RFU OR2T12 /// OR2T33 /// OR2T8 (11738714_s_at) / Fold change /veh OR2T12 /// OR2T33 /// OR2T8 (11738714_s_at) / RFU VCAN (11748164_a_at) / Fold change /veh VCAN (11748164_a_at) / RFU JSRP1 (11732532_at) / Fold change /veh JSRP1 (11732532_at) / RFU KRTAP10-11 (11738290_x_at) / Fold change /veh KRTAP10-11 (11738290_x_at) / RFU MYO3A (11730013_a_at) / Fold change /veh MYO3A (11730013_a_at) / RFU EBF3 (11725865_a_at) / Fold change /veh EBF3 (11725865_a_at) / RFU CAMK2N1 (11719241_x_at) / Fold change /veh CAMK2N1 (11719241_x_at) / RFU C5orf56 (11738088_a_at) / Fold change /veh C5orf56 (11738088_a_at) / RFU OLFML3 (11715873_a_at) / Fold change /veh OLFML3 (11715873_a_at) / RFU LOC100653217 /// NTM (11731650_a_at) / Fold change /veh LOC100653217 /// NTM (11731650_a_at) / RFU MAPK11 (11762145_a_at) / Fold change /veh MAPK11 (11762145_a_at) / RFU FIZ1 (11724087_x_at) / Fold change /veh FIZ1 (11724087_x_at) / RFU OASL (11726364_x_at) / Fold change /veh OASL (11726364_x_at) / RFU SOX15 (11748057_x_at) / Fold change /veh SOX15 (11748057_x_at) / RFU CD79A (11719716_a_at) / Fold change /veh CD79A (11719716_a_at) / RFU HIST1H1D (11736915_at) / Fold change /veh HIST1H1D (11736915_at) / RFU CASKIN2 (11723855_a_at) / Fold change /veh CASKIN2 (11723855_a_at) / RFU LOC730098 (11760151_x_at) / Fold change /veh LOC730098 (11760151_x_at) / RFU OR4N2 (11742367_at) / Fold change /veh OR4N2 (11742367_at) / RFU PRRT2 (11749266_a_at) / Fold change /veh PRRT2 (11749266_a_at) / RFU SNX32 (11753110_a_at) / Fold change /veh SNX32 (11753110_a_at) / RFU CDHR5 (11726645_a_at) / Fold change /veh CDHR5 (11726645_a_at) / RFU RCAN1 (11760418_a_at) / Fold change /veh RCAN1 (11760418_a_at) / RFU FAM167A (11723789_a_at) / Fold change /veh FAM167A (11723789_a_at) / RFU FAM26E (11764081_at) / Fold change /veh FAM26E (11764081_at) / RFU ISYNA1 (11749810_s_at) / Fold change /veh ISYNA1 (11749810_s_at) / RFU ACY1 (11761880_at) / Fold change /veh ACY1 (11761880_at) / RFU 11764098_at / Fold change /veh 11764098_at / RFU SAMD14 (11745864_x_at) / Fold change /veh SAMD14 (11745864_x_at) / RFU NPB (11741838_a_at) / Fold change /veh NPB (11741838_a_at) / RFU TMPRSS6 (11731388_a_at) / Fold change /veh TMPRSS6 (11731388_a_at) / RFU KRTAP10-2 (11738614_at) / Fold change /veh KRTAP10-2 (11738614_at) / RFU ARHGAP8 /// PRR5-ARHGAP8 (11727945_x_at) / Fold change /veh ARHGAP8 /// PRR5-ARHGAP8 (11727945_x_at) / RFU KRTAP5-7 /// NADSYN1 (11734609_at) / Fold change /veh KRTAP5-7 /// NADSYN1 (11734609_at) / RFU RASL12 (11751679_a_at) / Fold change /veh RASL12 (11751679_a_at) / RFU CDKN2B (11736163_a_at) / Fold change /veh CDKN2B (11736163_a_at) / RFU PRF1 (11729649_at) / Fold change /veh PRF1 (11729649_at) / RFU, ZNF638 /// ZNF638-IT1 / Fold change vs veh, ZNF638 /// ZNF638-IT1 / RFU, PANK3 / Fold change vs veh, PANK3 / RFU, SH3YL1 / Fold change vs veh, SH3YL1 / RFU, ZEB2 / Fold change vs veh, ZEB2 / RFU, NRIP1 / Fold change vs veh, NRIP1 / RFU, PTTG1IP / Fold change vs veh, PTTG1IP / RFU, CAPN2 / Fold change vs veh, CAPN2 / RFU, MED14 / Fold change vs veh, MED14 / RFU, SNORA58 / Fold change vs veh, SNORA58 / RFU, C1orf63 / Fold change vs veh, C1orf63 / RFU, LRRFIP1 / Fold change vs veh, LRRFIP1 / RFU, NDUFAF7 / Fold change vs veh, NDUFAF7 / RFU, SLC12A2 / Fold change vs veh, SLC12A2 / RFU, IBTK / Fold change vs veh, IBTK / RFU, ESF1 / Fold change vs veh, ESF1 / Fold change vs veh, TMEM50B / RFU, TAOK1 / Fold change vs veh, TAOK1 / RFU, ACBD3 / Fold change vs veh, ACBD3 / RFU, TMA16 / Fold change vs veh, TMA16 / RFU, RWDD3 / Fold change vs veh, RWDD3 / RFU, BCAT1 / Fold change vs veh, BCAT1 / RFU, EDEM3 / Fold change vs veh, EDEM3 / RFU, TMEM33 / Fold change vs veh, TMEM33 / RFU, WDR75 / Fold change vs veh, WDR75 / RFU, AHCTF1 / Fold change vs veh, AHCTF1 / RFU, TFRC / Fold change vs veh, TFRC / RFU, ZDHHC17 / Fold change vs veh, ZDHHC17 / RFU, NOM1 / Fold change vs veh, NOM1 / RFU, ARL8B / Fold change vs veh, ARL8B / RFU, ZBTB11 / Fold change vs veh, ZBTB11 / RFU, TAMM41 / Fold change vs veh, TAMM41 / RFU, KIAA1704 /// LOC100996395 / Fold change vs veh, KIAA1704 /// LOC100996395 / RFU, ING1 / Fold change vs veh, ING1 / RFU, TRMT61B / Fold change vs veh, TRMT61B / RFU, FUBP3 / Fold change vs veh, FUBP3 / RFU, TP53 / Fold change vs veh, TP53 / RFU, TNKS2 / Fold change vs veh, TNKS2 / RFU, ZFP14 / Fold change vs veh, ZFP14 / RFU, ACTR2 / Fold change vs veh, ACTR2 / RFU, PPP3R1 / Fold change vs veh, PPP3R1 / RFU, PIK3R1 / Fold change vs veh, PIK3R1 / RFU, HNRNPA1 / Fold change vs veh, HNRNPA1 / RFU, RNF170 / Fold change vs veh, RNF170 / RFU, ZNF28 / Fold change vs veh, ZNF28 / RFU, RNGTT / Fold change vs veh, RNGTT / RFU, OGT / Fold change vs veh, OGT / RFU, BRD1 / Fold change vs veh, BRD1 / RFU, MARS / Fold change vs veh, MARS / RFU, ZNF655 / Fold change vs veh, ZNF655 / RFU, FAHD1 / Fold change vs veh, FAHD1 / RFU, BDP1 / Fold change vs veh, BDP1 / RFU, LRRCC1 / Fold change vs veh, LRRCC1 / RFU, ARID1A / Fold change vs veh, ARID1A / RFU, ZNF146 / Fold change vs veh, ZNF146 / RFU, ZNF330 / Fold change vs veh, ZNF330 / RFU, GPN3 / Fold change vs veh, GPN3 / RFU, C9orf123 / Fold change vs veh, C9orf123 / RFU, N4BP2L2 / Fold change vs veh, N4BP2L2 / RFU, ARFIP1 / Fold change vs veh, ARFIP1 / RFU, FAM179B / Fold change vs veh, FAM179B / RFU, BCL10 / Fold change vs veh, BCL10 / RFU, UHRF1BP1L / Fold change vs veh, UHRF1BP1L / RFU, BET1 / Fold change vs veh, BET1 / RFU, CNOT2 / Fold change vs veh, CNOT2 / RFU, ZNF268 / Fold change vs veh, ZNF268 / Fold change vs veh, ZNF507 / RFU, DGCR2 / Fold change vs veh, DGCR2 / RFU, WDSUB1 / Fold change vs veh, WDSUB1 / Fold change vs veh, HSP90B1 /// MIR3652 / RFU, ADSS / Fold change vs veh, ADSS / RFU, GK / Fold change vs veh, GK / RFU, ZNF148 / Fold change vs veh, ZNF148 / RFU, TAF9 / Fold change vs veh, TAF9 / RFU, SLC1A5 / Fold change vs veh, SLC1A5 / RFU, SLMO2 / Fold change vs veh, SLMO2 / RFU, ABCC4 / Fold change vs veh, ABCC4 / RFU, LOC101060439 /// RAP1B / Fold change vs veh, LOC101060439 /// RAP1B / RFU, RFX7 / Fold change vs veh, RFX7 / RFU, GTPBP10 / Fold change vs veh, GTPBP10 / RFU, CNEP1R1 / Fold change vs veh, CNEP1R1 / RFU, BIVM-ERCC5 /// ERCC5 / Fold change vs veh, BIVM-ERCC5 /// ERCC5 / RFU, ILF3 / Fold change vs veh, ILF3 / RFU 11762660_at / Fold change /veh 11762660_at / RFU VCAN (11757783_s_at) / Fold change /veh VCAN (11757783_s_at) / RFU DDX43 (11728927_at) / Fold change /veh DDX43 (11728927_at) / RFU KRT8 (11758188_x_at) / Fold change /veh KRT8 (11758188_x_at) / RFU NKD1 (11759106_at) / Fold change /veh NKD1 (11759106_at) / RFU SRD5A1 (11742802_a_at) / Fold change /veh SRD5A1 (11742802_a_at) / RFU TPSAB1 /// TPSB2 (11721975_s_at) / Fold change /veh TPSAB1 /// TPSB2 (11721975_s_at) / RFU GSTM3 (11746129_a_at) / Fold change /veh GSTM3 (11746129_a_at) / RFU IL23R (11737362_x_at) / Fold change /veh IL23R (11737362_x_at) / RFU TMEM51 (11727254_a_at) / Fold change /veh TMEM51 (11727254_a_at) / RFU PIWIL2 (11732686_x_at) / Fold change /veh PIWIL2 (11732686_x_at) / RFU ORM1 (11744905_x_at) / Fold change /veh ORM1 (11744905_x_at) / RFU CCDC152 (11743942_at) / Fold change /veh CCDC152 (11743942_at) / RFU ECM1 (11717891_a_at) / Fold change /veh ECM1 (11717891_a_at) / RFU IL23R (11748794_a_at) / Fold change /veh IL23R (11748794_a_at) / RFU TNFAIP8L3 (11732012_x_at) / Fold change /veh TNFAIP8L3 (11732012_x_at) / RFU MBOAT4 (11741988_at) / Fold change /veh MBOAT4 (11741988_at) / RFU 11764193_at / Fold change /veh 11764193_at / RFU TMEM53 (11763286_at) / Fold change /veh TMEM53 (11763286_at) / RFU MAGEB2 (11727129_at) / Fold change /veh MAGEB2 (11727129_at) / RFU TMEM200A (11744735_a_at) / Fold change /veh TMEM200A (11744735_a_at) / RFU CCDC152 (11751479_a_at) / Fold change /veh CCDC152 (11751479_a_at) / RFU FAM211A (11726209_a_at) / Fold change /veh FAM211A (11726209_a_at) / RFU RGS16 (11746705_a_at) / Fold change /veh RGS16 (11746705_a_at) / RFU VCAN (11755009_s_at) / Fold change /veh VCAN (11755009_s_at) / RFU RHOB (11743442_s_at) / Fold change /veh RHOB (11743442_s_at) / RFU RGS16 (11720943_a_at) / Fold change /veh RGS16 (11720943_a_at) / RFU RGS16 (11720944_at) / Fold change /veh RGS16 (11720944_at) / RFU, VPS4B / Fold change vs veh, VPS4B / RFU, CREB1 / Fold change vs veh, CREB1 / RFU, DNAJC13 / Fold change vs veh, DNAJC13 / RFU, GNAQ / Fold change vs veh, GNAQ / RFU, CDK5R1 / Fold change vs veh, CDK5R1 / RFU, ZRANB3 / Fold change vs veh, ZRANB3 / RFU, CUL4A / Fold change vs veh, CUL4A / RFU, CCNY / Fold change vs veh, CCNY / RFU, UFL1 / Fold change vs veh, UFL1 / RFU, COG3 / Fold change vs veh, COG3 / RFU, DIAPH2 / Fold change vs veh, DIAPH2 / RFU, SKA2 / Fold change vs veh, SKA2 / RFU, AFF3 / Fold change vs veh, AFF3 / RFU, LMF1 / Fold change vs veh, LMF1 / RFU, IPO11 / Fold change vs veh, IPO11 / RFU, DFFB / Fold change vs veh, DFFB / RFU, FOXP1 / Fold change vs veh, FOXP1 / RFU, CARD8 / Fold change vs veh, CARD8 / RFU, STRN3 / Fold change vs veh, STRN3 / RFU, ADK / Fold change vs veh, ADK / RFU, RASSF2 / Fold change vs veh, RASSF2 / RFU, WIPF1 / Fold change vs veh, WIPF1 / RFU, LARP1B / Fold change vs veh, LARP1B / RFU, RASA1 / Fold change vs veh, RASA1 / RFU, RB1 / Fold change vs veh, RB1 / RFU, PPFIA1 / Fold change vs veh, PPFIA1 / RFU, MAT2A / Fold change vs veh, MAT2A / RFU, CCT5 / Fold change vs veh, CCT5 / RFU, WDR92 / Fold change vs veh, WDR92 / RFU, CUX1 / Fold change vs veh, CUX1 / RFU, TTC7A / Fold change vs veh, TTC7A / RFU, TMEM135 / Fold change vs veh, TMEM135 / RFU, DEPTOR / Fold change vs veh, DEPTOR / RFU, CPM / Fold change vs veh, CPM / RFU, DNAJB6 / Fold change vs veh, DNAJB6 / RFU, CACNA2D3 / Fold change vs veh, CACNA2D3 / RFU, DTX4 / Fold change vs veh, DTX4 / RFU, TFCP2 / Fold change vs veh, TFCP2 / RFU, GMCL1 /// GMCL1P1 / Fold change vs veh, GMCL1 /// GMCL1P1 / RFU, AEBP2 / Fold change vs veh, AEBP2 / RFU, SNHG1 /// SNORD22 /// SNORD25 /// SNORD26 /// SNORD27 /// SNORD28 /// SNORD29 /// SNORD31 / Fold change vs veh, SNHG1 /// SNORD22 /// SNORD25 /// SNORD26 /// SNORD27 /// SNORD28 /// SNORD29 /// SNORD31 / Fold change (Aza/veh), C12orf56 (ProbeSet 11735607_a_at) / Fold change (ACY-1035/veh), C12orf56 (ProbeSet 11735607_a_at) / Fold change (Aza/veh), FGFR1OP (ProbeSet 11751329_s_at) / Fold change (ACY-1035/veh), FGFR1OP (ProbeSet 11751329_s_at) / Fold change (Aza/veh), VPS36 (ProbeSet 11739960_a_at) / Fold change (ACY-1035/veh), VPS36 (ProbeSet 11739960_a_at) / RFU SYPL1 (11715823_x_at) / Fold change /veh SYPL1 (11715823_x_at) / RFU IGFBP7 (11715501_s_at) / Fold change /veh IGFBP7 (11715501_s_at) / RFU REEP3 (11722064_at) / Fold change /veh REEP3 (11722064_at) / RFU IGLL1 (11728026_x_at) / Fold change /veh IGLL1 (11728026_x_at): dose or concentration left out as unconfirmed
Conditions: ProbeSet 11715478_a_at; LIST B

## Nc1ccc(-c2cccs2)cc1NC(=O)c1ccc2c(c1)cc(C1CC1)n2CCN1CCOCC1 [ACY-1035]
  RFU, TFRC: 135.12 RFU
